Patent publication US6737383B1, “Herbicidal oxadiazolidines” (priority 1999, dated 2004)

Legend:
bedstraw = assay: Test B pre/postemergence bedstraw; assay type: in vivo, Galium aparine
Outline: (§1)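 Response is a visual 0-to-10 score relative to untreated plants, where 0 means no effect and 10 means complete control, taken twelve to sixteen days after application. Treatments went onto soil at planting and onto foliage of 1- to 4-leaf plants, using a surfactant-containing non-phytotoxic solvent.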

blackgrass = assay: Test B pre/postemergence blackgrass; assay type: in vivo, Alopecurus myosuroides
Outline: as §1

surinam grass = assay: Test B pre/postemergence surinam grass; assay type: in vivo, Brachiaria decumbens; conditions: Postemergence
Outline: as §1

cocklebur = assay: Test B pre/postemergence cocklebur; assay type: in vivo, Xanthium strumarium
Outline: as §1

corn = assay: Test B pre/postemergence corn; assay type: in vivo, Zea mays
Outline: as §1

crabgrass = assay: Test B pre/postemergence crabgrass; assay type: in vivo, Digitaria sanguinalis
Outline: as §1

giant foxtail = assay: Test B pre/postemergence giant foxtail; assay type: in vivo, Setaria faberii
Outline: as §1

morningglory = assay: Test B pre/postemergence morningglory; assay type: in vivo, Ipomoea hederacea
Outline: as §1

pigweed = assay: Test B pre/postemergence pigweed; assay type: in vivo, Amaranthus retroflexus
Outline: as §1

rape = assay: Test B pre/postemergence rape; assay type: in vivo, Brassica napus
Outline: as §1

soybean = assay: Test B pre/postemergence soybean; assay type: in vivo, Glycine max
Outline: as §1

sugar beet = assay: Test B pre/postemergence sugar beet; assay type: in vivo, Beta vulgaris
Outline: as §1

velvetleaf = assay: Test B pre/postemergence velvetleaf; assay type: in vivo, Abutilon theophrasti
Outline: as §1

wheat = assay: Test B pre/postemergence wheat; assay type: in vivo, Triticum aestivum
Outline: as §1

wild oat = assay: Test B pre/postemergence wild oat; assay type: in vivo, Avena fatua
Outline: as §1

purple nutsedge = assay: Test B pre/postemergence purple nutsedge; assay type: in vivo, Cyperus rotundus
Outline: as §1

[1] = Postemergence, Rate 62 g/ha, scale 0 to 10, 0 is no effect, 10 is complete control
[2] = Postemergence, Rate 125 g/ha, scale of 0 to 10 where 0 is no effect and 10 is complete control
[3] = Preemergence, Rate 125 g/ha, scale of 0 to 10 where 0 is no effect and 10 is complete control
[4] = Preemergence, Rate 250 g/ha, scale 0 (no effect) to 10 (complete control)
[5] = Rate 500 g/ha, Postemergence, scale 0 to 10, 0 is no effect, 10 is complete control
[6] = Rate 500 g/ha, Preemergence, scale 0 to 10 (0 no effect, 10 complete control)
[7] = Rate 62 g/ha, Preemergence, scale 0 to 10
[8] = Rate 250 g/ha, Postemergence, scale 0 to 10, 0 is no effect, 10 is complete control

CCC(C)n1c(=O)on(C(=O)N(c2ccc(F)cc2)C(C)C)c1=O (stereo not shown) [Compound 751]
Plant response rating, Bedstraw (bedstraw; [1]): 0 | Bedstraw plant response rating (bedstraw; [2]): 5 | Plant response rating, Bedstraw (bedstraw; [3]): 2 | Bedstraw plant response rating (bedstraw; [4]): 9 | Bedstraw plant response rating (bedstraw; [5]): 7 | Bedstraw plant response rating (bedstraw; [6]): 10 | Plant response rating, Blackgrass (blackgrass; [1]): 6 | Blackgrass plant response rating (blackgrass; [2]): 6 | Plant response rating, Blackgrass (blackgrass; [3]): 10 | Blackgrass plant response rating (blackgrass; [4]): 10 | Blackgrass plant response rating (blackgrass; [7]): 9 | Blackgrass plant response rating (blackgrass; [8]): 6 | Blackgrass plant response rating (blackgrass; [5]): 7 | Blackgrass plant response rating (blackgrass; [6]): 10 | Plant response rating, B. signalgrass (surinam grass; Rate 62 g/ha, scale 0 to 10, 0 is no effect, 10 is complete control): 3 | B. signalgrass plant response rating (surinam grass; Rate 125 g/ha, scale of 0 to 10 where 0 is no effect and 10 is complete control): 3 | B. signalgrass plant response rating (surinam grass; Rate 250 g/ha, scale 0 to 10, 0 is no effect, 10 is complete control): 6 | B. signalgrass plant response rating (surinam grass; Rate 500 g/ha, scale 0 to 10, 0 is no effect, 10 is complete control): 7 | Plant response rating, Cocklebur (cocklebur; [1]): 0 | Cocklebur plant response rating (cocklebur; [2]): 2 | Plant response rating, Cocklebur (cocklebur; [3]): 0 | Cocklebur plant response rating (cocklebur; [4]): 0 | Cocklebur plant response rating (cocklebur; [7]): 0 | Cocklebur plant response rating (cocklebur; [8]): 2 | Cocklebur plant response rating (cocklebur; [5]): 2 | Cocklebur plant response rating (cocklebur; [6]): 0 | Plant response rating, Corn (corn; [1]): 0 | Corn plant response rating (corn; [2]): 0 | Plant response rating, Corn (corn; [3]): 4 | Corn plant response rating (corn; [4]): 8 | Corn plant response rating (corn; [7]): 0 | Corn plant response rating (corn; [8]): 0 | Corn plant response rating (corn; [5]): 2 | Corn plant response rating (corn; [6]): 9 | Plant response rating, Crabgrass (crabgrass; [1]): 7 | Crabgrass plant response rating (crabgrass; [2]): 8 | Plant response rating, Crabgrass (crabgrass; [3]): 10 | Crabgrass plant response rating (crabgrass; [4]): 10 | Crabgrass plant response rating (crabgrass; [7]): 10 | Crabgrass plant response rating (crabgrass; [8]): 9 | Crabgrass plant response rating (crabgrass; [5]): 9 | Crabgrass plant response rating (crabgrass; [6]): 10 | Plant response rating, Giant foxtail (giant foxtail; [1]): 8 | Giant foxtail plant response rating (giant foxtail; [2]): 9 | Plant response rating, Giant foxtail (giant foxtail; [3]): 10 | Giant foxtail plant response rating (giant foxtail; [4]): 10 | Giant foxtail plant response rating (giant foxtail; [7]): 10 | Giant foxtail plant response rating (giant foxtail; [8]): 9 | Giant foxtail plant response rating (giant foxtail; [5]): 9 | Giant foxtail plant response rating (giant foxtail; [6]): 10 | Plant response rating, Morningglory (morningglory; [1]): 8 | Morningglory plant response rating (morningglory; [2]): 8 | Plant response rating, Morningglory (morningglory; [3]): 5 | Morningglory plant response rating (morningglory; [4]): 5 | Morningglory plant response rating (morningglory; [7]): 0 | Morningglory plant response rating (morningglory; [8]): 8 | Morningglory plant response rating (morningglory; [5]): 9 | Morningglory plant response rating (morningglory; [6]): 5 | Redroot pigweed plant response rating (pigweed; [2]): 6 | Plant response rating, Redroot pigweed (pigweed; [3]): 10 | Redroot pigweed plant response rating (pigweed; [4]): 10 | Redroot pigweed plant response rating (pigweed; [7]): 10 | Redroot pigweed plant response rating (pigweed; [8]): 9 | Redroot pigweed plant response rating (pigweed; [5]): 9 | Redroot pigweed plant response rating (pigweed; [6]): 10 | Plant response rating, Rape (rape; [1]): 2 | Rape plant response rating (rape; [2]): 3 | Plant response rating, Rape (rape; [3]): 6 | Rape plant response rating (rape; [4]): 7 | Rape plant response rating (rape; [7]): 4 | Rape plant response rating (rape; [8]): 5 | Rape plant response rating (rape; [5]): 5 | Rape plant response rating (rape; [6]): 9 | Plant response rating, Soybean (soybean; [1]): 2 | Soybean plant response rating (soybean; [2]): 3 | Plant response rating, Soybean (soybean; [3]): 0 | Soybean plant response rating (soybean; [4]): 7 | Soybean plant response rating (soybean; [7]): 0 | Soybean plant response rating (soybean; [8]): 7 | Soybean plant response rating (soybean; [5]): 7 | Soybean plant response rating (soybean; [6]): 9 | Plant response rating, Sugarbeets (sugar beet; [1]): 3 | Sugarbeets plant response rating (sugar beet; [2]): 3 | Plant response rating, Sugarbeets (sugar beet; [3]): 2 | Sugarbeets plant response rating (sugar beet; [4]): 5 | Sugarbeets plant response rating (sugar beet; [7]): 2 | Sugarbeets plant response rating (sugar beet; [8]): 3 | Sugarbeets plant response rating (sugar beet; [5]): 3 | Sugarbeets plant response rating (sugar beet; [6]): 7 | Plant response rating, Velvetleaf (velvetleaf; [1]): 0 | Velvetleaf plant response rating (velvetleaf; [2]): 2 | Plant response rating, Velvetleaf (velvetleaf; [3]): 8 | Velvetleaf plant response rating (velvetleaf; [4]): 8 | Velvetleaf plant response rating (velvetleaf; [7]): 7 | Velvetleaf plant response rating (velvetleaf; [8]): 2 | Velvetleaf plant response rating (velvetleaf; [5]): 3 | Velvetleaf plant response rating (velvetleaf; [6]): 8 | Plant response rating, Wheat (wheat; [1]): 0 | Wheat plant response rating (wheat; [2]): 0 | Plant response rating, Wheat (wheat; [3]): 4 | Wheat plant response rating (wheat; [4]): 5 | Wheat plant response rating (wheat; [7]): 0 | Wheat plant response rating (wheat; [8]): 5 | Wheat plant response rating (wheat; [5]): 3 | Wheat plant response rating (wheat; [6]): 10 | Plant response rating, Wild oats (wild oat; [1]): 0 | Wild oats plant response rating (wild oat; [2]): 0 | Plant response rating, Wild oats (wild oat; [3]): 8 | Wild oats plant response rating (wild oat; [4]): 10 | Wild oats plant response rating (wild oat; [7]): 3 | Wild oats plant response rating (wild oat; [8]): 3 | Wild oats plant response rating (wild oat; [5]): 5 | Wild oats plant response rating (wild oat; [6]): 10 | Plant response rating, Nutsedge (purple nutsedge; [1]): 0 | Nutsedge plant response rating (purple nutsedge; [2]): 0 | Plant response rating, Nutsedge (purple nutsedge; [3]): 0 | Nutsedge plant response rating (purple nutsedge; [4]): 0 | Nutsedge plant response rating (purple nutsedge; [7]): 0 | Nutsedge plant response rating (purple nutsedge; [8]): 0 | Nutsedge plant response rating (purple nutsedge; [5]): 10 | Nutsedge plant response rating (purple nutsedge; [6]): 0
